From ChEMBL document CHEMBL1201862, “PubChem BioAssay data set” (2004)
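The compound was tested at five concentrations on cells cultured in 96-well plates, with a 48-hour exposure period. GI50 marks 50% less growth.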 The source made the active and inactive calls. Cut-off read from the data, not from the text of the source: active = GI50 up to about 1.1 µM and inactive = higher.

How the values were obtained:
Assay in all cases: inhibition of tumour cell growth, NCI panel, 48 h
CAKI-1 = test system: CAKI-1
HCC 2998 = test system: HCC 2998
HCT-116 = test system: HCT-116
HL-60 = test system: HL-60
HOP-62 = test system: HOP-62
HOP-92 = test system: HOP-92
HT-29 = test system: HT-29
IGROV-1 = test system: IGROV-1
KM12 = test system: KM12
LOX IMVI = test system: LOX IMVI
MDA-MB-231 = test system: MDA-MB-231
MDA-MB-435 = test system: MDA-MB-435
NCI-H460 = test system: NCI-H460
NCI/ADR-RES = test system: NCI/ADR-RES
OVCAR-3 = test system: OVCAR-3
OVCAR-8 = test system: OVCAR-8
SK-MEL-2 = test system: SK-MEL-2
SN12C = test system: SN12C
T47D = test system: T47D
TK-10 = test system: TK-10

SMILES | GI50 (CAKI-1) | GI50 (HCC 2998) | GI50 (HCT-116) | GI50 (HL-60) | GI50 (HOP-62) | GI50 (HOP-92) | GI50 (HT-29) | GI50 (IGROV-1) | GI50 (KM12) | GI50 (LOX IMVI) | GI50 (MDA-MB-231) | GI50 (MDA-MB-435) | GI50 (NCI-H460) | GI50 (NCI/ADR-RES) | GI50 (OVCAR-3) | GI50 (OVCAR-8) | GI50 (SK-MEL-2) | GI50 (SN12C) | GI50 (T47D) | GI50 (TK-10)
O=C1OC(c2ccc(O)c(-c3ccccc3)c2)(c2ccc(O)c(-c3ccccc3)c2)c2c(Cl)c(Cl)c(Cl)c(Cl)c21 | > 100 µM (inactive) | > 100 µM (inactive) | > 100 µM (inactive) | 0.177 µM (active) | > 100 µM (inactive) | > 100 µM (inactive) | > 100 µM (inactive) | > 100 µM (inactive) | > 100 µM (inactive) | > 100 µM (inactive) | > 100 µM (inactive) | > 100 µM (inactive) | > 100 µM (inactive) | > 100 µM (inactive) | > 100 µM (inactive) | > 100 µM (inactive) | > 100 µM (inactive) | > 100 µM (inactive) | > 100 µM (inactive) | > 100 µM (inactive)
NNC(=O)CNc1cccc(Br)c1 | > 100 µM (inactive) | > 100 µM (inactive) | > 100 µM (inactive) | 74.8 µM (inactive) | > 100 µM (inactive) | > 100 µM (inactive) | > 100 µM (inactive) | > 100 µM (inactive) | > 100 µM (inactive) | > 100 µM (inactive) | > 100 µM (inactive) | > 100 µM (inactive) | > 100 µM (inactive) | > 100 µM (inactive) | > 100 µM (inactive) | > 100 µM (inactive) | > 100 µM (inactive) | > 100 µM (inactive) | > 100 µM (inactive) | > 100 µM (inactive)
COc1cc(C2c3cc4c(cc3OC(N3CCCCC3)C2C)OCO4)cc(OC)c1O (stereo not given) | 12 µM (inactive) | 12.2 µM (inactive) | 4.59 µM (inactive) | 4.15 µM (inactive) | 6.78 µM (inactive) | 15 µM (inactive) | 8.75 µM (inactive) | 9.98 µM (inactive) | 5.89 µM (inactive) | 9.77 µM (inactive) | 9.38 µM (inactive) | 2.21 µM (inactive) | 6.64 µM (inactive) | 4.57 µM (inactive) | 6.12 µM (inactive) | 13.4 µM (inactive) | 7.73 µM (inactive) | 11.4 µM (inactive) | 11.7 µM (inactive) | 16.4 µM (inactive)
OCC1OC(NC(=S)NCSCCC(F)(F)C(F)(F)C(F)(F)C(F)(F)C(F)(F)C(F)(F)F)C(O)C(O)C1O (stereo not given) | 76 µM (inactive) | 43.8 µM (inactive) | 34.4 µM (inactive) | 49.4 µM (inactive) | 32.4 µM (inactive) | 22.7 µM (inactive) | 34.2 µM (inactive) | 31.8 µM (inactive) | 38.7 µM (inactive) | 34.4 µM (inactive) | > 100 µM (inactive) | 16.4 µM (inactive) | 34 µM (inactive) | > 100 µM (inactive) | 86.9 µM (inactive) |  | 51.6 µM (inactive) | 60 µM (inactive) | > 100 µM (inactive) | 49.7 µM (inactive)
NC(Cc1ccc2oc3cc(=O)c4ccccc4c-3nc2c1)C(=O)O (stereo not given) | > 79.4 µM (inactive) | 16 µM (inactive) | 36 µM (inactive) | 40.8 µM (inactive) | 25.9 µM (inactive) | > 78.7 µM (inactive) | 28.7 µM (inactive) | 68.2 µM (inactive) | 39.2 µM (inactive) | 13.4 µM (inactive) | > 79.6 µM (inactive) | 4.4 µM (inactive) | 11.5 µM (inactive) | 47.4 µM (inactive) | 19.6 µM (inactive) | 37.4 µM (inactive) | 22.6 µM (inactive) | 16.4 µM (inactive) | 38.5 µM (inactive) | 69.7 µM (inactive)
Nc1nc(NCC2(CO)CC(CCc3ccccc3)C2)cc(=O)[nH]1 (stereo not given) | > 100 µM (inactive) | > 100 µM (inactive) | > 100 µM (inactive) | 82.8 µM (inactive) | > 100 µM (inactive) | > 100 µM (inactive) | > 100 µM (inactive) | > 100 µM (inactive) | > 100 µM (inactive) | > 100 µM (inactive) | > 100 µM (inactive) | > 100 µM (inactive) | > 100 µM (inactive) | > 100 µM (inactive) | > 100 µM (inactive) | > 100 µM (inactive) | > 100 µM (inactive) | > 100 µM (inactive) | 27.8 µM (inactive) | 
Cc1cc(C)c2c(n1)S(=O)(=O)N(CCCN1CCN(c3cccc(C(F)(F)F)c3)CC1)c1c-2nn(C)c1C | 43.1 µM (inactive) | > 100 µM (inactive) | 61.8 µM (inactive) | 24 µM (inactive) | > 100 µM (inactive) | 45.3 µM (inactive) | 16.6 µM (inactive) | 55.2 µM (inactive) | 52.8 µM (inactive) | 52.6 µM (inactive) | > 100 µM (inactive) | 40.5 µM (inactive) | 89.3 µM (inactive) | 53.3 µM (inactive) | 67.1 µM (inactive) | > 100 µM (inactive) | > 100 µM (inactive) | 97.5 µM (inactive) | > 100 µM (inactive) | > 100 µM (inactive)
On1c(-c2ccccc2)nc2ccccc2c1=S | 5.48 µM (inactive) | 2.4 µM (inactive) | 2.7 µM (inactive) | 2.4 µM (inactive) | 7.35 µM (inactive) | > 100 µM (inactive) | 6.64 µM (inactive) | 0.493 µM (active) | 3.18 µM (inactive) | 0.632 µM (active) | 70.3 µM (inactive) | 7.43 µM (inactive) | 0.583 µM (active) | 4.2 µM (inactive) | 4.39 µM (inactive) | 4 µM (inactive) | 8.75 µM (inactive) | 7.13 µM (inactive) | 3.37 µM (inactive) | > 100 µM (inactive)
O=C(CN1CCN(Cc2ccccc2)CC1)N1CCCn2c1nc1ccccc1c2=O | > 100 µM (inactive) | > 100 µM (inactive) | > 100 µM (inactive) | > 100 µM (inactive) | > 100 µM (inactive) | 4.58 µM (inactive) | > 100 µM (inactive) | > 100 µM (inactive) | > 100 µM (inactive) | > 100 µM (inactive) | > 100 µM (inactive) | > 100 µM (inactive) | > 100 µM (inactive) | > 100 µM (inactive) | > 100 µM (inactive) | > 100 µM (inactive) | > 100 µM (inactive) | > 100 µM (inactive) | > 100 µM (inactive) | > 100 µM (inactive)
CC[C@@H](/C=C\CCC1(C[C@@H](N)CCC=C(C)C)OCCO1)O[Si](C(C)C)(C(C)C)C(C)C | 18.8 µM (inactive) | 13 µM (inactive) | 17.1 µM (inactive) | 4.28 µM (inactive) | 22 µM (inactive) | 14.9 µM (inactive) | 17.3 µM (inactive) | 15.8 µM (inactive) | 18.1 µM (inactive) | 4.97 µM (inactive) | 19 µM (inactive) | 18.4 µM (inactive) | 18.4 µM (inactive) | 16.8 µM (inactive) | 18.7 µM (inactive) | 11.9 µM (inactive) | 17.3 µM (inactive) | 17.3 µM (inactive) | 23.2 µM (inactive) | 17.1 µM (inactive)
CS(=O)(=O)c1ccc(/C=N/NC(N)=S)cc1 | > 100 µM (inactive) | > 100 µM (inactive) | > 100 µM (inactive) | > 100 µM (inactive) | > 100 µM (inactive) | > 100 µM (inactive) | > 100 µM (inactive) | > 100 µM (inactive) | > 100 µM (inactive) | > 100 µM (inactive) | > 100 µM (inactive) | > 100 µM (inactive) | > 100 µM (inactive) | > 100 µM (inactive) | > 100 µM (inactive) | > 100 µM (inactive) |  | > 100 µM (inactive) | > 100 µM (inactive) | > 100 µM (inactive)
O=C(Nc1nn(C(=O)c2ccc(Cl)cc2)c(=O)s1)c1ccc(Cl)cc1 | > 100 µM (inactive) | > 100 µM (inactive) | > 100 µM (inactive) | > 100 µM (inactive) | > 100 µM (inactive) | > 100 µM (inactive) | > 100 µM (inactive) | > 100 µM (inactive) | > 100 µM (inactive) | > 100 µM (inactive) | > 100 µM (inactive) | > 100 µM (inactive) | > 100 µM (inactive) | > 100 µM (inactive) | > 100 µM (inactive) | > 100 µM (inactive) |  | > 100 µM (inactive) | > 100 µM (inactive) | > 100 µM (inactive)
C[n+]1c(/C=C/c2ccc(/C=N/NC(=O)c3ccc(C(=O)N/N=C/c4ccc(/C=C/c5cn6ccccc6[n+]5C)cc4)cc3)cc2)cn2ccccc21 | > 100 µM (inactive) | > 100 µM (inactive) | > 100 µM (inactive) | 23.4 µM (inactive) | > 100 µM (inactive) | > 100 µM (inactive) | > 100 µM (inactive) | > 100 µM (inactive) | > 100 µM (inactive) | > 100 µM (inactive) | > 100 µM (inactive) | > 100 µM (inactive) | > 100 µM (inactive) | > 100 µM (inactive) | > 100 µM (inactive) | > 100 µM (inactive) |  | > 100 µM (inactive) | > 100 µM (inactive) | > 100 µM (inactive)
CC1=C(C(=O)NNC(=O)C[N+](C)(C)C)CC(C(=O)NNC(=O)C[N+](C)(C)C)=C(C)N1 | > 100 µM (inactive) | > 100 µM (inactive) | > 100 µM (inactive) | 24.9 µM (inactive) | > 100 µM (inactive) | 71.8 µM (inactive) | > 100 µM (inactive) | > 100 µM (inactive) | > 100 µM (inactive) | > 100 µM (inactive) | > 100 µM (inactive) | > 100 µM (inactive) | > 100 µM (inactive) | > 100 µM (inactive) | > 100 µM (inactive) | > 100 µM (inactive) | > 100 µM (inactive) | > 100 µM (inactive) | 63.2 µM (inactive) | > 100 µM (inactive)
